We go through 41 compounds from patent publication US9210927B2, “Pesticidal compositions and processes related thereto” (Dow AgroSciences LLC, priority 2013, dated 2015).

Where two headings read alike, the source gives them in different places.

Assay [1] has as its system BAW (Spodoptera exigua). In words: Bioassays on Beet Armyworm (BAW), 128-well diet tray assay. Format: in vivo. The conditions noted are these: for pest or weed control at 50 µg/cm2: Spodoptera exigua, 168 h, read-out: BAW Rating. The protocol:
(§1) Bioassays on Beet Armyworm (“BAW”) and Corn Earworm (“CEW”) and Cabbage Looper (“CL”)
(§2) Certain molecules disclosed in this document were tested against BAW and CEW and CL using procedures described in the following examples. In the reporting of the results, the “BAW & CEW & CL Rating Table” was used (See Table Section).
Bioassays on BAW (Spodoptera exigua)
Bioassays on BAW were conducted using a 128-well diet tray assay. one to five second instar BAW larvae were placed in each well (3 mL) of the diet tray that had been previously filled with 1 mL of artificial diet to which 50 μg/cm^2 of the test compound (dissolved in 50 μL of 90:10 acetone-water mixture) had been applied (to each of eight wells) and then allowed to dry. Trays were covered with a clear self-adhesive cover, and held at 25° C., 14:10 light-dark for five to seven days. Percent mortality was recorded for the larvae in each well; activity in the eight wells was then averaged. The results are indicated in the table entitled “Table 3: Assay Results” (See Table Section).

Assay [2] relates to CEW (Helicoverpa zea). In words: Bioassays on Corn Earworm (CEW), 128-well diet tray assay. Format: in vivo. The following applies: for pest or weed control at 50 µg/cm2: Helicoverpa zea, 168 h, read-out: CEW Rating. The procedure:
as §1, §2
Bioassays on CEW (Helicoverpa zea)
Bioassays on CEW were conducted using a 128-well diet tray assay. one to five second instar CEW larvae were placed in each well (3 mL) of the diet tray that had been previously filled with 1 mL of artificial diet to which 50 μg/cm^2 of the test compound (dissolved in 50 μL of 90:10 acetone-water mixture) had been applied (to each of eight wells) and then allowed to dry. Trays were covered with a clear self-adhesive cover, and held at 25° C., 14:10 light-dark for five to seven days. Percent mortality was recorded for the larvae in each well; activity in the eight wells was then averaged. The results are indicated in the table entitled “Table 3: Assay Results” (See Table Section).

The mark [3] stands for this setting: percent mortality, second instar larvae, 50 μg/cm^2 on artificial diet, five to seven days, 25° C.

As to `Cc1cc(/C=C/C(c2cc(Cl)cc(Cl)c2)C(F)(F)F)ccc1C(=O)NCc1ccccc1` (stereo not drawn) [AC11], the pest or weed control at 50 µg/cm2 in assay [1] and in assay [2] (setting [3]) was 50 to 100% each time.
For `Cc1cc(/C=C/C(c2cc(Cl)cc(Cl)c2)C(F)(F)F)ccc1C(=O)NCc1ccccn1` (stereo not drawn) [AC12], the pest or weed control at 50 µg/cm2 in assay [1] and in assay [2] (setting [3]) was 50 to 100% throughout.
For the compound `Cc1cc(/C=C/C(c2cc(Cl)cc(Cl)c2)C(F)(F)F)ccc1C(=O)NC(C)(C)c1ccccn1` (stereo not drawn) [AC16], the pest or weed control at 50 µg/cm2 in assay [1] and in assay [2] (setting [3]) was 50 to 100% each time.
For `Cc1cc(/C=C/C(c2cc(Cl)cc(Cl)c2)C(F)(F)F)ccc1C(=O)NCc1ccoc1` (stereo not drawn) [AC20], the pest or weed control at 50 µg/cm2 in assay [1] and in assay [2] (setting [3]) was 50 to 100% in each case.
On to `Cc1cc(/C=C/C(c2cc(Cl)c(Cl)c(Cl)c2)C(F)(F)F)ccc1C(=O)NCc1ccc(Cl)nc1` (stereo not drawn) [AC22], for which the pest or weed control at 50 µg/cm2 in assay [1] and in assay [2] (setting [3]) was 50 to 100% in each case.
On to `Cc1cc(/C=C/C(c2cc(Cl)cc(Cl)c2)C(F)(F)F)ccc1C(=O)NCC(=O)NCC(F)(F)F` (stereo not drawn) [AC24], for which the “BAW Rating” value in assay [1] (setting [3]) was “A (50-100)”. The “CEW Rating” value in assay [2] (setting [3]) is listed as “A (50-100)”.
As for `O=C(NC1CS(=O)(=O)C1)c1ccc(/C=C/C(c2cc(Cl)c(Cl)c(Cl)c2)C(F)(F)F)cc1C(F)(F)F` (stereo not drawn) [AC35], the pest or weed control at 50 µg/cm2 in assay [1] and in assay [2] (setting [3]) was 50 to 100% throughout.
As to `Cc1cc(/C=C/C(c2cc(Cl)c(F)c(Cl)c2)C(F)(F)F)ccc1C(=O)NCc1ccc(Cl)nc1` (stereo not drawn) [AC38], the pest or weed control at 50 µg/cm2 in assay [1] and in assay [2] (setting [3]) was 50 to 100% throughout.
Consider `Cc1cc(/C=C/C(c2cc(Cl)cc(Cl)c2)C(F)(F)F)ccc1C(=O)NCc1cncnc1` (stereo not drawn) [AC39, 4-((E)-3-(3,5-Dichlorophenyl)-4,4,4-trifluorobut-1-enyl)-2-methyl-N-((pyrimidin-5-yl)methyl)benzamide], for which the pest or weed control at 50 µg/cm2 in assay [1] and in assay [2] (setting [3]) was 50 to 100% each time.
With `Cc1cc(/C=C/C(c2cc(Cl)cc(Cl)c2)C(F)(F)F)ccc1C(=O)NCC(=O)NC1CC1` (stereo not drawn) [AC40], the pest or weed control at 50 µg/cm2 in assay [1] and in assay [2] (setting [3]) was 50 to 100% throughout.
In the case of `Cc1cc(/C=C/C(c2cc(Cl)cc(Cl)c2)C(F)(F)F)ccc1C(=O)NCC(=O)NC1CSC1` (stereo not drawn) [AC41], the pest or weed control at 50 µg/cm2 in assay [1] was in the range of 50 to 100%.
In the case of `Cc1cc(/C=C/C(c2cc(Cl)cc(Cl)c2)C(F)(F)F)ccc1C(=O)NCc1nc2ccccc2s1` (stereo not drawn) [AC42], the pest or weed control at 50 µg/cm2 in assay [1] lay in the range of 50 to 100%.
As to `Cc1cc(/C=C/C(c2cc(Cl)cc(Cl)c2)C(F)(F)F)ccc1C(=O)NN(C)c1ccccc1F` (stereo not drawn) [AC45], the pest or weed control at 50 µg/cm2 in assay [1] and in assay [2] (setting [3]) was 50 to 100% in each case.
`O=C(NCc1ccc(Cl)cn1)c1ccc(/C=C/C(c2cc(Cl)cc(Cl)c2)C(F)(F)F)cc1Br` (stereo not drawn) [AC46]: the pest or weed control at 50 µg/cm2 in assay [1] and in assay [2] (setting [3]) was 50 to 100% throughout.
On to `O=C(CNC(=O)c1ccc(/C=C/C(c2cc(Cl)cc(Cl)c2)C(F)(F)F)cc1F)NCC(F)(F)F` (stereo not drawn) [AC62], for which the pest or weed control at 50 µg/cm2 in assay [1] and in assay [2] (setting [3]) was 50 to 100% throughout.
`O=C(CNC(=O)c1ccc(/C=C/C(c2cc(Cl)c(F)c(Cl)c2)C(F)(F)F)cc1F)NCC(F)(F)F` (stereo not drawn) [AC68]: the pest or weed control at 50 µg/cm2 in assay [1] and in assay [2] (setting [3]) was 50 to 100% in each case.
Turning to `Cc1cc(/C=C/C(c2cc(Cl)cc(Cl)c2)C(F)(F)F)ccc1C(=O)NCC(=O)NC1CS(=O)(=O)C1` (stereo not drawn) [AC81], in assay [1], the pest or weed control at 50 µg/cm2 was in the range of 50 to 100%.
In the case of `O=C(NC1CS(=O)(=O)C1)c1ccc(/C=C/C(c2cc(Cl)c(F)c(Cl)c2)C(F)(F)F)cc1F` (stereo not drawn) [AC84], the pest or weed control at 50 µg/cm2 in assay [1] and in assay [2] (setting [3]) was 50 to 100% throughout.
For the compound `CCc1cc(/C=C/C(c2cc(Cl)c(F)c(Cl)c2)C(F)(F)F)ccc1C(=O)NC1CS(=O)(=O)C1` (stereo not drawn) [AC86], the pest or weed control at 50 µg/cm2 in assay [1] and in assay [2] (setting [3]) was 50 to 100% in each case.
With `FC(F)(F)CNC(=S)CNC(=S)c1ccc(/C=C/C(c2cc(Cl)c(Cl)c(Cl)c2)C(F)(F)F)cc1Br` (stereo not drawn) [AC90, (E)-2-Bromo-N-(2-thioxo-2-((2,2,2-trifluoroethyl)amino)ethyl)-4-(4,4,4-trifluoro-3-(3,4,5-trichlorophenyl)but-1-en-1-yl)benzothioamide], the pest or weed control at 50 µg/cm2 in assay [1] and in assay [2] (setting [3]) was 50 to 100% each time.
`O=C(CNC(=S)c1ccc(/C=C/C(c2cc(Cl)c(Cl)c(Cl)c2)C(F)(F)F)cc1Br)NCC(F)(F)F` (stereo not drawn) [AC91, (E)-2-(2-Bromo-4-(4,4,4-trifluoro-3-(3,4,5-trichlorophenyl)but-1-en-1-yl)phenylthioamido)-N-(2,2,2-trifluoroethyl)acetamide]: the pest or weed control at 50 µg/cm2 in assay [1] and in assay [2] (setting [3]) was 50 to 100% each time.
Take `O=C(NCC(=S)NCC(F)(F)F)c1ccc(/C=C/C(c2cc(Cl)c(Cl)c(Cl)c2)C(F)(F)F)cc1Br` (stereo not drawn) [AC92, (E)-2-Bromo-N-(2-thioxo-2-((2,2,2-trifluoroethyl)amino)ethyl)-4-(4,4,4-trifluoro-3-(3,4,5-trichlorophenyl)but-1-en-1-yl)benzamide]: the pest or weed control at 50 µg/cm2 in assay [1] and in assay [2] (setting [3]) was 50 to 100% in each case.
Turning to `Cc1cc(/C=C\C(c2cc(Cl)cc(Cl)c2)C(F)(F)F)ccc1C(=O)NCC(=O)NC1CC1` (stereo not drawn) [AC93], in assay [1], the pest or weed control at 50 µg/cm2 fell in the range of 50 to 100%.
Regarding `O=C(CNC(=O)c1ccc(/C=C/C(c2cc(F)c(Cl)c(F)c2)C(F)(F)F)cc1Br)NCC(F)(F)F` (stereo not drawn) [AC102], the pest or weed control at 50 µg/cm2 in assay [2] (setting [3]) lay in the range of 50 to 100%.
Turning to `O=C(NC1CCN(C2COC2)CC1)c1ccc(/C=C/C(c2cc(Cl)c(Cl)c(Cl)c2)C(F)(F)F)cc1Br` (stereo not drawn) [AC108, (E)-2-Bromo-N-(1-(oxetan-3-yl)piperidin-4-yl)-4-(4,4,4-trifluoro-3-(3,4,5-trichlorophenyl)but-1-en-1-yl)benzamide], the pest or weed control at 50 µg/cm2 in assay [1] was 0 to 50%.
Take `Cc1cc(/C=C/C(c2cc(Cl)cc(Cl)c2)C(F)(F)F)ccc1C(=O)NCC1CCCO1` (stereo not drawn) [AC118]: the pest or weed control at 50 µg/cm2 in assay [1] was in the range of 50 to 100%.
In the case of `O=C(Cn1ncc2cc(/C=C/C(c3cc(Cl)c(F)c(Cl)c3)C(F)(F)F)ccc2c1=O)NCC(F)(F)F` (stereo not drawn) [BC14, (E)-2-(6-(3-(3,5-Dichloro-4-fluorophenyl)-4,4,4-trifluorobut-1-en-1-yl)-1-oxophthalazin-2(1H)-yl)-N-(2,2,2-trifluoroethyl)acetamide], in assay [1], the pest or weed control at 50 µg/cm2 was 50 to 100%.
Turning to `O=C(Cc1ccc(Cl)nc1)NCc1ccc(/C=C/C(c2cc(Cl)c(Cl)c(Cl)c2)C(F)(F)F)cc1Cl` (stereo not drawn) [CC14], the pest or weed control at 50 µg/cm2 in assay [1] is 50 to 100%.
Turning to `CCNC(=O)NCc1ccc(/C=C/C(c2cc(Cl)cc(Cl)c2)C(F)(F)F)cc1Cl` (stereo not drawn) [CC31, (E)-1-(2-Chloro-4-(3-(3,5-dichlorophenyl)-4,4,4-trifluorobut-1-en-1-yl)benzyl)-3-ethylurea], the pest or weed control at 50 µg/cm2 in assay [1] is 0 to 50%.
`O=C(NCc1ccc(/C=C/C(c2cc(Cl)c(Cl)c(Cl)c2)C(F)(F)F)cc1Cl)Oc1ccccc1Cl` (stereo not drawn) [CC40]: the pest or weed control at 50 µg/cm2 in assay [2] was in the range of 50 to 100%.
For the compound `O=C(CC(F)(F)F)NCc1ccc(/C=C/C(c2cc(Cl)c(Cl)c(Cl)c2)C(F)(F)F)c2ccccc12` (stereo not drawn) [CC46, (E)-3,3,3-Trifluoro-N-((4-(4,4,4-trifluoro-3-(3,4,5-trichlorophenyl)but-1-en-1-yl)naphthalen-1-yl)methyl)propanamide], the pest or weed control at 50 µg/cm2 in assay [2] (setting [3]) was in the range of 50 to 100%.
Regarding `O=C(NOc1ccc(/C=C/C(c2cc(Cl)c(Cl)c(Cl)c2)C(F)(F)F)cc1)C1CC1` (stereo not drawn) [CC52, (E)-N-(4-(4,4,4-Trifluoro-3-(3,4,5-trichlorophenyl)but-1-en-1-yl)phenoxy)cyclopropanecarboxamide], the pest or weed control at 50 µg/cm2 in assay [1] was 50 to 100%.
As to `FC(F)(F)C(/C=C/c1ccc(-n2cncn2)cc1)c1ccccc1` (stereo not drawn) [DC3], the pest or weed control at 50 µg/cm2 in assay [1] lay in the range of 0 to 50%.
Turning to `FC(F)(F)C(/C=C/c1ccc(-n2cncn2)cc1)c1ccc(Cl)cc1` (stereo not drawn) [DC4], the pest or weed control at 50 µg/cm2 in assay [1] lay in the range of 50 to 100%.
Turning to `Fc1ccc(C(/C=C/c2ccc(-n3cncn3)cc2)C(F)(F)F)cc1` (stereo not drawn) [DC7], the pest or weed control at 50 µg/cm2 in assay [1] is 50 to 100%.
In the case of `Fc1cc(F)cc(C(/C=C/c2ccc(-n3cncn3)cc2)C(F)(F)F)c1` (stereo not drawn) [DC8], the pest or weed control at 50 µg/cm2 in assay [1] is 50 to 100%.
Consider `Cc1cc(C)cc(C(/C=C/c2ccc(-n3cncn3)cc2)C(F)(F)F)c1` (stereo not drawn) [DC11], for which the pest or weed control at 50 µg/cm2 in assay [1] fell in the range of 50 to 100%.
For the compound `COc1c(Cl)cc(C(/C=C/c2ccc(-n3cncn3)cc2)C(F)(F)F)cc1Cl` (stereo not drawn) [DC20], in assay [1], the pest or weed control at 50 µg/cm2 lay within 50 to 100%.
For the compound `Cc1ncnn1-c1ccc(/C=C/C(c2cc(Cl)cc(Cl)c2)C(F)(F)F)cc1` (stereo not drawn) [DC23], the pest or weed control at 50 µg/cm2 in assay [2] (setting [3]) fell in the range of 50 to 100%.
Consider `OCc1cc(/C=C/C(c2cc(Cl)cc(Cl)c2)C(F)(F)F)ccc1-n1cncn1` (stereo not drawn) [DC53], for which, in assay [2] (setting [3]), the pest or weed control at 50 µg/cm2 lay within 50 to 100%.
Regarding `Cc1cc(-n2cncn2)ccc1/C=C/C(c1cc(Cl)cc(Cl)c1)C(F)(F)F` (stereo not drawn) [DC65], the pest or weed control at 50 µg/cm2 in assay [2] (setting [3]) was 50 to 100%.
